Laboratory results: patent US20230332103A1, “Methods and Compositions for Generating Human Forebrain Neural Progenitor Cells and for Maturation Thereof to Parvalbumin+ Interneurons” (Trailhead Biosystems Inc., priority 2021, published 2023)
“Also recorded” adds a separate entry of the source.

Tests used:
Type in all cases: cell-based, human
[1] = system: forebrain-committed neural stem cells (stage 1 neural stem cells); experiment: factor criticality analysis (dynamic profile analysis) of stage 2 recipe
Protocol: To assess the impact of the elimination of each validated factor, dynamic profile analysis was used and compared the expression level of genes of interest in absence of each finalized factor while others are present.
In the stage 2 recipe, each of the four finalized factors were removed while the other three factors remained present and expression levels of NKX2-1, PAX6 and NKX2-2 were assessed compared to presence of all four factors. The results are summarized in FIG. 13A-B. Absence of PD0325901 reduced the levels of NKX2-1 and NKX2-2 while increasing PAX6 from 5000 to 3200, 100 to 0 and 0 to 5000, respectively. […] Removing XAV939 reduced the levels of NKX2-1 from 5000 to 3000, while increasing both PAX6 and NKX2-2 to 10000 and 200, respectively. Another observation was the interaction between XAV939 and Purmorphamine. In the absence of XAV939, the impact of Purmorphamine on NKX2-1 became negative and, as it is shown in interaction plot of FIG. 14, the level of NKX2-1 is higher when both factors are present.

MGE progenitor cells = experiment: HD-DoE 12-factor experiment for stage 4 recipe, optimized for MEF2C
Source text: These effectors are small molecules or proteins. They are commonly used during stepwise differentiation of stem cells to specific fates. The choice of the effectors was based on current literature on neural induction in forebrain region of developing brain and differentiation of stem cells to neural progenitors.
To evaluate the effectors, experiments with at least 8 factors were designed that can assess the response of cells to 48 or more different combinations of effectors in a range of concentrations. To analyze the models, we focused on expression of genes involved in development and patterning of the forebrain interneurons maturation including LHX6 (Yuan et al. (2018) Elife, 7:e37382), DLX5 (Wang et al. (2010) J. Neuroscience 30:5334-5345), ASCL1 (Shi et al. (2016) J. Biol. Chem. 291:13560-13570). At later stages we focused on interneuron maturation genes including Parvalbumin and absence of somatostatin (Horn and Nicoll (2018) Proc. Natl. Acad. Sci. 115:589-594). The impacts of each effector on gene expression level are defined by a parameter called factor contribution that is calculated for each effector during the modeling.
To identify the recipe of stage 4 of differentiation, 48 different combinations of effectors generated using Design-of-Experiments compression through D-optimality were robotically prepared. The effector combinations were prepared in a basal media and were subsequently added to the cells, which were then allowed to differentiate. Three days later RNA extraction was performed, and gene expression was obtained using quantitative PCR analysis. The data was normalized and modeled using partial least squares regression analysis to the effector design, resulting in the generation of gene-specific models, which after model tuning for maximal predictive power, provided explanation of the effectors ability to control the expression of individual genes, combinatorically, and individually. Solutions within the tested space could then be explored to address desirability. […] Valproic Acid can inhibit histone deaceylases and increase γ-aminobutyric acid (GABA). […] GDNF is the […] Glial cell line-derived neurotrophic factor and can activate the GDNF pathway.
To find the set of factors that have the potential to optimize MEF2C in this experiment, a new assessment was done through dynamic profile analysis with focus on maximal expression of MEF2C (FIG. 20).

[2] = system: stage 2 neural stem cells (cells treated with stage 1 and stage 2 media); experiment: HD-DoE experiment for stage 3 recipe, optimized for ASCL1
Protocol: To further guide the cells to medial ganglionic eminence progenitor fate, an additional HD-DoE experiment was performed for 3 days on cells that were treated with stage 1 and stage 2 media for total of 6 days prior to start of the experiment. This experiment included 13 effectors, LDN193189, A8301, GNF5837, AZD3147, GSI-XX, Takinib, PD0325901, PD173074, BLU9931, IGF-1, MHY1485, Purmorphamine and Prostratin. In this model, we focused on maximum expression of genes expressed in neuronal progenitor cells in medial ganglionic eminence (MGE) region including ASCL1, LHX6 and DLX1 (Silberberg et al. (2016) Neuron 92:59-74). When the model was optimized for maximum expression of ASCL1 at 1700, A8301, GSI-XX, Purmorphamine and Takinib, which is an inhibitor of TAK1 pathway, had the highest factor contributions, 18.1, 14.1, 12.7 and 10.1 respectively. […]

[3] = system: stage 2 neural stem cells; experiment: factor criticality analysis (dynamic profile analysis) of stage 3 recipe; set-up: unit not given here; details: other five factors present
Protocol: To assess the impact of the elimination of each validated factor, dynamic profile analysis was used and compared the expression level of genes of interest in absence of each finalized factor while others are present. […] In the stage 3 recipe, each of the six finalized factors were removed while the other five factors remained present and the expression levels of ASCL1, DLX1 and LHX6 were assessed compared to the presence of all six factors. […] As expected, in the absence of IGF-1, the value of DLX1 increases to 410, however, ASCL1 and LHX6 decreased to 1390 and 220, respectively.

[4] = dynamic profile analysis, FIG. 10

SMILES | expression level of PAX6 in the absence of the effector ([1]; stage 2 recipe, other three factors present, 0 with all four factors) | expression level of NKX2-2 in the absence of the effector ([1]; stage 2 recipe, other three factors present, 100 with all four factors) | expression level of NKX2-1 in the absence of the effector ([1]; stage 2 recipe, other three factors present, 5000 with all four factors) | impact on expression of MEF2C (MGE progenitor cells; dynamic profile analysis, FIG. 20) | factor contribution on expression of MEF2C (MGE progenitor cells; significant negative effect, model optimized for maximal expression of MEF2C) | impact on expression of ASCL1 [2, 4] | impact on expression of DLX1 [2, 4] | impact on expression of LHX6 [2, 4] | factor contribution on expression of ASCL1 ([2]; positive, model optimized for maximum expression of ASCL1 at 1700, FIG. 9) | impact on NKX2-1 in the absence of XAV939 ([1]; interaction between XAV939 and Purmorphamine, FIG. 14) | expression level of DLX1 when the effector is removed ([3]; 220 with all six factors) | expression level of LHX6 when the effector is removed ([3]; 240 with all six factors) | expression level of ASCL1 when the effector is removed ([3]; 1650 with all six factors)
c1ccc2c(-c3cnn4cc(-c5ccc(N6CCNCC6)cc5)cnc34)ccnc2c1 [LDN193189] | below 0 | below 0 | did not significantly change | negative effect | 11 |  |  |  |  |  |  |  | 
c1ccc2c(Oc3nc(Nc4ccc(N5CCOCC5)cc4)c4ncn(C5CCCCC5)c4n3)cccc2c1 [Purmorphamine] |  |  |  |  |  | positive trends; also recorded: Positive impact | did not have a significant negative impact | positive trends; also recorded: Positive impact | 12.7 | negative | stayed the same | 190 | 1200
